Results: patent US20200190062A1, “HETEROCYCLIC COMPOUND AND PHARMACEUTICAL COMPOSITION COMPRISING SAME” (BEYONDBIO INC., priority 2015, published 2020)
Where a name gives a salt, the structure may show the parent alone.

Assays:
Assay in all cases: Inhibition of cancer cell proliferation (MTT)
Assay type in all cases: cell-based, human
NCI-H23 = tested on: NCI-H23
Protocol: (§1) A test was conducted to confirm whether the compounds obtained in the above Examples can inhibit proliferation of human colon carcinoma cell line HCT116, glioblastoma cell lines U-87MG and T98G, neuroblastoma cell lines SH-SYSY and SK-N-SH, and lung cancer cell lines A549 and NCI-H23.
(§2) HCT116, U-87MG, SH-SYSY, SK-N-SH and A549 cells were culured in DMEM medium containing 10% FBS. T98G cells were cultured in MEM medium containing 10% FBS and NCI-H23 cells were cultured in […] medium containing 10% FBS. In order to analyze an inhibition of proliferation, HCT116 cells were dispensed in 2000 cells/well into 96 well plate, and SH-SYSY, SK-N-SH, U-87MG, T98G, A549, and NCI-H23 cells were dispensed in 3000 cells/well into 96 well plate. And then, the cells were cultured at 5% CO2 and 37° C. for 16 hrs to allow the cells to attach to the wells. The compounds of the above Examples were added to each well at a concentration of 0.004, 0.013, 0.04, 0.12, 0.37, 1.1, 3.3, and 10 uM, and the culture volume was adjusted to 100 ul. A control group was treated with dimethylsulfoxide (DMSO) at the same concentration, 0.08%, as used to treat the test compounds. Afterwards, cells were cultured at 5% CO2 and 37° C. for 72 hrs. And then, 10 ul of the solution of MTT (3-(4,5-dimethylthiazol-2-yl)-2,5-diphenyltetrazolium bromide) dissolved in PBS at 5 mg/ml was added to each well to identify viable cells and the cells were cultured for further 2 hrs. The culture solution was removed, 100 ul of DMSO was added to dissolve the formed formazan and then an absorbance was measured at 535 nm. Based on the absorbance of the control cells not treated with the compounds, the amounts of the viable cells according to the concentration of the compounds were calculated. GI50 (growth inhibition 50) value which is the concentration of the compound to inhibit cancer cell proliferation by 50% was calculated using Graphpad Prism 5.0 program.

HCT116 = tested on: HCT116
Protocol: as §1, §2

U-87MG = tested on: U-87MG
Protocol: as §1, §2

A549 = tested on: A549
Protocol: as §1, §2

T98G = tested on: T98G
Protocol: as §1, §2

Structure (SMILES) | GI50 (NCI-H23; 72 hrs) [nM] | GI50 (HCT116; 72 hrs) [nM] | GI50 (A549; 72 hrs) [nM] | GI50 (HCT116; Homo sapiens, HCT-116, 72 h) [nM] | other results
Nc1nc(-c2nc(-c3ccnc(N)c3F)ccc2O)cc(C2CCNCC2)n1 [Example 84, 2′-amino-6-(2-amino-6-(piperidin-4-yl)pyrimidin-4-yl)-3′-fluoro-[2,4′-bipyridin]-5-ol acetate] | 2030 | 60 | 220 |  | GI50 (U-87MG; 72 hrs): 180 nM; GI50 (T98G; 72 hrs): 290 nM
CC(C)N1CCCC(c2cc(-c3nc(-c4ccnc(N)c4F)ccc3O)nc(N)n2)C1 (stereo not shown) [Example 92, 2′-amino-6-(2-amino-6-(1-isopropylpiperidin-3-yl)pyrimidin-4-yl)-3′-fluoro[2,4′-bipyridin]-5-ol 4hydrochloride] | 50 | 20 | 30 |  | GI50 (U-87MG; 72 hrs): 30 nM; GI50 (T98G; 72 hrs): 90 nM
CCc1c(-c2nc(-c3ccnc(N)c3F)ccc2O)nc(N)nc1C1CCN(C(C)C)CC1 [Example 49, 2′-amino-6-(2-amino-5-ethyl-6-(1-isopropylpiperidin-4-yl)pyrimidin-4-yl)-3′-fluoro-[2,4′-bipyridin]-5-ol] |  |  |  | 20 | GI50 (NCI-H23; Homo sapiens, NCI-H23, 72 h): 70 nM; GI50 (U-87MG; Homo sapiens, U-87 MG, 72 h): 30 nM; GI50 (A549; Homo sapiens, A549, 72 h): 50 nM; GI50 (T98G; Homo sapiens, T98G, 72 h): 50 nM
Nc1nc(-c2nc(-c3ccnc(N)c3F)ccc2O)cc(C2CCOCC2)n1 [Example 32, 2′-amino-6-(2-amino-6-(tetrahydro-2H-pyran-4-yl)pyrimidin-4-yl)-3′-fluoro-[2,4′-bipyridin]-5-ol] |  |  |  | 30 | GI50 (NCI-H23; Homo sapiens, NCI-H23, 72 h): 190 nM; GI50 (U-87MG; Homo sapiens, U-87 MG, 72 h): 100 nM; GI50 (A549; Homo sapiens, A549, 72 h): 80 nM; GI50 (T98G; Homo sapiens, T98G, 72 h): 110 nM
CCCN1CCCC(c2nc(N)nc(-c3nc(-c4ccnc(N)c4F)ccc3O)c2C)C1 (stereo not shown) [Example 98, 2′-amino-6-(2-amino-5-methyl-6-(1-propylpiperidin-3-yl)pyrimidin-4-yl)-3′-fluoro-[2,4′-bipyridin]-5-ol 4hydrochloride] | 2060 | 890 | 1300 |  | GI50 (U-87MG; 72 hrs): 970 nM; GI50 (T98G; 72 hrs): 1750 nM
CCc1c(-c2nc(-c3ccnc(N)c3F)ccc2O)nc(N)nc1C1CCN(C(C)C)CC1 [Example 105] | 90 | 30 | 60 |  | GI50 (U-87MG; 72 hrs): 40 nM; GI50 (T98G; 72 hrs): 60 nM
Cc1c(-c2nc(-c3ccnc(N)c3F)ccc2O)nc(N)nc1C1CCCN(C(C)C)C1 (stereo not shown) [Example 48, 2′-amino-6-(2-amino-6-(1-isopropylpiperidin-3-yl)-5-methylpyrimidin-4-yl)-3′-fluoro-[2,4′-bipyridin]-5-ol] |  |  |  | 2910 | GI50 (U-87MG; Homo sapiens, U-87 MG, 72 h): 3820 nM
Cc1c(-c2nc(-c3ccnc(N)c3F)ccc2O)nc(N)nc1C1CCCN(C(C)C)C1 (stereo not shown) [Example 99, 2′-amino-6-(2-amino-6-(1-isopropylpiperidin-3-yl)-5-methylpyrimidin-4-yl)-3′-fluoro-[2,4′-bipyridin]-5-ol 4hydrochloride] |  | 2030 |  |  | GI50 (U-87MG; 72 hrs): 2570 nM; GI50 (T98G; Homo sapiens, T98G, 72 h): 3790 nM
CCCc1c(-c2nc(-c3ccnc(N)c3F)ccc2O)nc(N)nc1C1CCN(C(C)C)CC1 [Example 106, 2′-amino-6-(2-amino-6-(1-isopropylpiperidin-4-yl)-5-propylpyrimidin-4-yl)-3′-fluoro-[2,4′-bipyridin]-5-ol 4hydrochloride] | 170 | 60 | 820 |  | GI50 (U-87MG; 72 hrs): 90 nM; GI50 (T98G; 72 hrs): 140 nM
CN1CCCC(c2cc(-c3nc(-c4ccnc(N)c4F)ccc3O)nc(N)n2)C1 (stereo not shown) [Example 38, 2′-amino-6-(2-amino-6-(1-methylpiperidin-3-yl)pyrimidin-4-yl)-3′-fluoro-[2,4′-bipyridin]-5-ol] |  |  |  | 2 | GI50 (NCI-H23; Homo sapiens, NCI-H23, 72 h): 20 nM; GI50 (U-87MG; Homo sapiens, U-87 MG, 72 h): 4 nM; GI50 (A549; Homo sapiens, A549, 72 h): 5 nM; GI50 (T98G; Homo sapiens, T98G, 72 h): 20 nM
Cc1cc(-c2nc(-c3ccncc3F)ccc2O)nc(N)n1 [Example 26, 6-(2-amino-6-methylpyrimidin-4-yl)-3′-fluoro-[2,4′-bipyridin]-5-ol] |  |  |  | 1180 | 
CC(C)c1cc(-c2nc(-c3ccnc(N)c3F)ccc2O)nc(N)n1 [Example 81, 2′-amino-6-(2-amino-6-isopropylpyrimidin-4-yl)-3′-fluoro-[2,4′-bipyridin]-5-ol 3hydrochloride] | 70 | 20 | 140 |  | 
CN1CCCC(c2cc(-c3nc(-c4ccnc(N)c4F)ccc3O)nc(N)n2)C1 (stereo not shown) [Example 89, 2′-amino-6-(2-amino-6-(1-methylpiperidin-3-yl)pyrimidin-4-yl)-3′-fluoro-[2,4′-bipyridin]-5-ol 4hydrochloride] | 20 |  | 10 |  | GI50 (T98G; 72 hrs): 20 nM
Nc1nccc(-c2ccc(O)c(-c3ccnc(N)n3)n2)n1 [Example 62, 2,6-bis(2-aminopyrimidin-4-yl)pyridin-3-ol oxalate] |  |  |  |  | GI50 (HCT116; 72 hrs, oxalate): 190 nM
Cc1cc(-c2nc(-c3cccc(N)c3)ccc2O)nc(N)n1 [Example 30, 2-(2-amino-6-methylpyrimidin-4-yl)-6-(3-aminophenyl)pyridin-3-ol] |  |  |  | 720 | 
Cc1cc(-c2nc(-c3ccc(O)cc3F)ccc2O)nc(N)n1 [Example 29, 2-(2-amino-6-methylpyrimidin-4-yl)-6-(2-fluoro-4-hydroxyphenyl)pyridin-3-ol] |  |  |  | 1260 | 
Cc1cc(-c2nc(-c3ccc(O)cc3)ccc2O)nc(N)n1 [Example 27, 2-(2-amino-6-methylpyrimidin-4-yl)-6-(4-hydroxyphenyl)pyridin-3-ol] |  |  |  | 290 | 
CN1CCC(c2cc(-c3nc(-c4ccnc(N)c4F)ccc3O)nc(N)n2)CC1 [Example 80, 2′-amino-6-(2-amino-6-(1-methylpiperidin-4-yl)pyrimidin-4-yl)-3′-fluoro-[2,4′-bipyridin]-5-ol malonate] |  | 140 |  |  | 
CN1CCC(c2cc(-c3nc(-c4ccnc(N)c4F)ccc3O)nc(N)n2)CC1 [Example 79, 2′-amino-6-(2-amino-6-(1-methylpiperidin-4-yl)pyrimidin-4-yl)-3′-fluoro-[2,4′-bipyridin]-5-ol oxalate] |  |  |  |  | GI50 (HCT116; 72 hrs, oxalate): 40 nM
CN1CCC(c2cc(-c3nc(-c4ccnc(N)c4F)ccc3O)nc(N)n2)CC1 [Example 78, 2′-amino-6-(2-amino-6-(1-methylpiperidin-4-yl)pyrimidin-4-yl)-3′-fluoro-[2,4′-bipyridin]-5-ol 2acetate] |  | 40 |  |  | 

More lines, main results first:

GI50 (NCI-H23; 72 hrs) [nM] | GI50 (HCT116; 72 hrs) [nM] | GI50 (A549; 72 hrs) [nM] | GI50 (HCT116; Homo sapiens, HCT-116, 72 h) [nM] | Structure (SMILES) | other results
90 | 30 |  |  | CCc1cnc(N)nc1-c1nc(-c2ccnc(N)c2F)ccc1O [Example 56, 2′-amino-6-(2-amino-5-ethylpyrimidin-4-yl)-3′-fluoro-[2,4′-bipyridin]-5-ol] | GI50 (U-87MG; Homo sapiens, U-87 MG, 72 h): 60 nM; GI50 (A549; Homo sapiens, A549, 72 h): 80 nM; GI50 (T98G; 72 hrs): 130 nM
20 | 10 | 10 |  | CCCc1cnc(N)nc1-c1nc(-c2ccnc(N)c2F)ccc1O [Example 103, 2′-amino-6-(2-amino-5-propylpyrimidin-4-yl)-3′-fluoro-[2,4′-bipyridin]-5-ol 3hydrochloride] | GI50 (U-87MG; 72 hrs): 10 nM; GI50 (T98G; 72 hrs): 10 nM
 | 190 |  |  | Nc1nccc(-c2ccc(O)c(-c3ccnc(N)n3)n2)n1 [Example 64, 2,6-bis(2-aminopyrimidin-4-yl)pyridin-3-ol sulfate] | 
 |  |  | 3590 | Nc1cc(-c2ncc(O)c(-c3ccnc(N)n3)n2)ccn1 [Example 5, 2′-amino-2-(2-aminopyridin-4-yl)-[4,4′-bipyrimidin]-5-ol] | 
 |  |  | 6080 | Nc1nccc(-c2nc(-c3cccnc3)ccc2O)n1 [Example 11, 6-(2-aminopyrimidin-4-yl)-[2,3′-bipyridin]-5-ol] | 
 | 190 |  |  | Nc1nccc(-c2ccc(O)c(-c3ccnc(N)n3)n2)n1 [Example 63, 2,6-bis(2-aminopyrimidin-4-yl)pyridin-3-ol malonate] | 
 |  |  | 290 | Cc1cc(-c2nc(-c3ccncc3)ccc2O)nc(N)n1 [Example 25, 6-(2-amino-6-methylpyrimidin-4-yl)-[2,4′-bipyridin]-5-ol] | 
 |  |  | 670 | Nc1cccc(-c2nc(-c3ccnc(N)n3)ccc2O)n1 [Example 7, 6′-amino-6-(2-aminopyrimidin-4-yl)-[2,2′-bipyridin]-3-ol] | 
90 | 20 | 170 |  | CC(C)c1cc(-c2nc(-c3ccnc(N)c3F)ccc2O)nc(N)n1 [Example 82, 2′-amino-6-(2-amino-6-isopropylpyrimidin-4-yl)-3′-fluoro-[2,4′-bipyridin]-5-ol 2acetate] | 
 |  |  | 2300 | Nc1nccc(-c2cnc(O)c(-c3ccnc(N)n3)c2)n1 [Example 6, 3,5-bis(2-aminopyrimidin-4-yl)pyridin-2-ol] | 
